Consider 20 compounds from patent publication US10081624B2, “Heterocyclic compound” (Takeda Pharmaceutical Company Limited, priority 2014, dated 2018).

The target of one assay is T1, HDAC1 enzyme (Homo sapiens, UniProt Q13547).
T1 construct: prepared by transducing full length HDAC1 and HDAC6 genes into Sf-9 insect cells; GST; purchased SignalChem; host or cells: Sf-9 insect cells
Kind of assay: HDAC1 enzyme inhibitory assay (HDAC-Glo I/II Assay kit). The assay is classed as biochemical. The following applies: 1 μM test compound; read-out: HDAC1 inhibitory rate (%) (1 μM). In outline:
(§1)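 Full-length GST-purified HDAC1 or HDAC6 (Sf-9 expressed) preincubated 60 min at room temperature with compound in Tris-HCl pH 7.5 buffer with glutathione and Tween-20. HDAC-Glo substrate-developer added, 20 min at room temperature, then luminescence read; inhibition relative to no-enzyme wells as 100%.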

The next assay deals with T2, HDAC6 enzyme (Homo sapiens, UniProt Q9UBN7).
T2 construct: prepared by transducing full length HDAC1 and HDAC6 genes into Sf-9 insect cells; GST; purchased SignalChem; host or cells: Sf-9 insect cells
T2 sequence (Q9UBN7 1-1215): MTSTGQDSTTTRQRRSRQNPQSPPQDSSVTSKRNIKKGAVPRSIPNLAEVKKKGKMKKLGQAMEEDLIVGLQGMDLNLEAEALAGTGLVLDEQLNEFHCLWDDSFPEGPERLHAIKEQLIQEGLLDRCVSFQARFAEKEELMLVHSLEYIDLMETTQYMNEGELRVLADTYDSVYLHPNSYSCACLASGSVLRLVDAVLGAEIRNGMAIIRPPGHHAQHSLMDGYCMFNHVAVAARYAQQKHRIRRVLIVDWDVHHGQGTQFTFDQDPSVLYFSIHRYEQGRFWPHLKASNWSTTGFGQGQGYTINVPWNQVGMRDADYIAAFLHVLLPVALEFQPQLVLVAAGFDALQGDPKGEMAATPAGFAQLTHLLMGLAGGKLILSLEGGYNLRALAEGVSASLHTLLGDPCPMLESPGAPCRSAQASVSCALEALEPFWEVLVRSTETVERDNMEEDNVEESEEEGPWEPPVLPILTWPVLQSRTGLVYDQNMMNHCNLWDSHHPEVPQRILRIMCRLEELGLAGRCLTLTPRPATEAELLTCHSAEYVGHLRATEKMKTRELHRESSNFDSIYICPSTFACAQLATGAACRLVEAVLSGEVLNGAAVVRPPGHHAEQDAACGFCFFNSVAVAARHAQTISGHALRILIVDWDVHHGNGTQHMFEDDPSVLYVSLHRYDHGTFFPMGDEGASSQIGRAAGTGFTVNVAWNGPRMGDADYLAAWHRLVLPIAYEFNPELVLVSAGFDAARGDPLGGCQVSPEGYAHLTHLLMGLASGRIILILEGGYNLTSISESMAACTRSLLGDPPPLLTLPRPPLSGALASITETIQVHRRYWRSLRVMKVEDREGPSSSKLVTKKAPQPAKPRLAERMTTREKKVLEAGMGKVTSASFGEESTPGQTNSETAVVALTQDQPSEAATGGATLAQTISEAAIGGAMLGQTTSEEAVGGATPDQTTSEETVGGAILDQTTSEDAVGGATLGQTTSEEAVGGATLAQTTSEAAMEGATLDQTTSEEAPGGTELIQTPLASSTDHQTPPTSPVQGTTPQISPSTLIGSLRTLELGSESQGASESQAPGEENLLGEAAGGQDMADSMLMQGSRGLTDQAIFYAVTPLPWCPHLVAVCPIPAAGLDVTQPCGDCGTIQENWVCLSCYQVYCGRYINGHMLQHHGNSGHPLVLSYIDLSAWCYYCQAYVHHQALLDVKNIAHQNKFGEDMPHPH
Kind of assay: HDAC6 enzyme inhibitory assay (HDAC-Glo I/II Assay kit). The assay is classed as biochemical. The following applies: 1 μM test compound; read-out: HDAC6 inhibitory rate (%) (1 μM). In outline: as §1

T1 sequence (Q13547 whole entry): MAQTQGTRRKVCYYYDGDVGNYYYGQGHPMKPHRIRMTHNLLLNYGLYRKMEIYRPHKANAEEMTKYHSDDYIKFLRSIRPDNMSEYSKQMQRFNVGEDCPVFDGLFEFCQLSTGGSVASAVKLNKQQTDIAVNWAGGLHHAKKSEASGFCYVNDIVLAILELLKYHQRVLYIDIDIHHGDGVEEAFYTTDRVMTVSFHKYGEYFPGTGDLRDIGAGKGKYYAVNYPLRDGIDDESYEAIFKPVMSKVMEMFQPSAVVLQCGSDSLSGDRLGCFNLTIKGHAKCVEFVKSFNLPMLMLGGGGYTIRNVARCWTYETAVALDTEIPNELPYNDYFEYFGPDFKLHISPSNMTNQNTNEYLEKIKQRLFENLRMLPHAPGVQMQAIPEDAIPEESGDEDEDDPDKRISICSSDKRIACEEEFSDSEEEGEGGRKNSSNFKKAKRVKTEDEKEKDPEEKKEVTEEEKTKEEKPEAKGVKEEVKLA

With `N#Cc1cc(Cl)cc(C(=O)N2CCOC[C@@H]2CNC(=O)c2ccc(-c3noc(C(F)(F)F)n3)cc2)c1` [Example 86, N-(((3S)-4-(3-chloro-5-cyanobenzoyl)morpholin-3-yl)methyl)-4-(5-(trifluoromethyl)-1,2,4-oxadiazol-3-yl)benzamide], the inhibition at 1 µM on HDAC1 enzyme stood at 24%; at HDAC6 enzyme, 98%.

As for `Cc1cc(C#N)ccc1C(=O)N1CCOC[C@@H]1CNC(=O)c1ccc(-c2noc(C(F)(F)F)n2)cc1` [Example 87, N-(((3S)-4-(4-cyano-2-methylbenzoyl)morpholin-3-yl)methyl)-4-(5-(trifluoromethyl)-1,2,4-oxadiazol-3-yl)benzamide], the values for the inhibition at 1 µM on HDAC1 enzyme and at HDAC6 enzyme were 29% and 98%, respectively.

On to `Cc1noc(C)c1C(=O)N1CCOC[C@@H]1CNC(=O)c1ccc(-c2noc(C(F)(F)F)n2)cc1` [Example 88, N-(((3S)-4-((3,5-dimethyl-1,2-oxazol-4-yl)carbonyl)morpholin-3-yl)methyl)-4-(5-(trifluoromethyl)-1,2,4-oxadiazol-3-yl)benzamide], for which the inhibition at 1 µM was 38% at HDAC1 enzyme and 100% at HDAC6 enzyme.

With `O=C(NC[C@H]1COCCN1C(=O)N1CCCCC1)c1ccc(-c2noc(C(F)(F)F)n2)cc1` [Example 89, N-(((3S)-4-(piperidin-1-ylcarbonyl)morpholin-3-yl)methyl)-4-(5-(trifluoromethyl)-1,2,4-oxadiazol-3-yl)benzamide], the inhibition at 1 µM at HDAC1 enzyme was 12%; at HDAC6 enzyme it was 98%.

Regarding `Cn1nc2ccccc2c1C(=O)N1CCOC[C@@H]1CC(=O)Nc1ccc(-c2noc(C(F)(F)F)n2)cc1` [Example 90, 2-((3S)-4-((2-methyl-2H-indazol-3-yl)carbonyl)morpholin-3-yl)-N-(4-(5-(trifluoromethyl)-1,2,4-oxadiazol-3-yl)phenyl)acetamide], the inhibition at 1 µM was determined as 29% on HDAC1 enzyme and 97% on HDAC6 enzyme.

With `Cc1nc2sccn2c1C(=O)N1CCOC[C@@H]1CNC(=O)c1ccc(-c2noc(C(F)(F)F)n2)cc1` [Example 91, N-(((3S)-4-((6-methylimidazo[2,1-b][1,3]thiazol-5-yl)carbonyl)morpholin-3-yl)methyl)-4-(5-(trifluoromethyl)-1,2,4-oxadiazol-3-yl)benzamide], the inhibition at 1 µM on HDAC1 enzyme was 42%; at HDAC6 enzyme, 98%.

On to `O=C(NC[C@H]1COCCN1C(=O)N1CCC[C@H]1CO)c1ccc(-c2noc(C(F)(F)F)n2)cc1` [Example 107, N-(((3S)-4-(((2S)-2-(hydroxymethyl)pyrrolidin-1-yl)carbonyl)morpholin-3-yl)methyl)-4-(5-(trifluoromethyl)-1,2,4-oxadiazol-3-yl)benzamide], for which the values for the inhibition at 1 µM at HDAC1 enzyme and at HDAC6 enzyme were 14% and 84%, respectively.

`O=C(NC[C@H]1COCCN1C(=O)N1CCC[C@@H]1CO)c1ccc(-c2noc(C(F)(F)F)n2)cc1` [Example 108, N-(((3S)-4-(((2R)-2-(hydroxymethyl)pyrrolidin-1-yl)carbonyl)morpholin-3-yl)methyl)-4-(5-(trifluoromethyl)-1,2,4-oxadiazol-3-yl)benzamide]: the inhibition at 1 µM was determined as 2% on HDAC1 enzyme and 100% on HDAC6 enzyme.

Regarding `O=C(NC[C@H]1COCCN1C(=O)N1C2CCC1COC2)c1ccc(-c2noc(C(F)(F)F)n2)cc1` [Example 109, N-(((3S)-4-(3-oxa-8-azabicyclo[3.2.1]oct-8-ylcarbonyl)morpholin-3-yl)methyl)-4-(5-(trifluoromethyl)-1,2,4-oxadiazol-3-yl)benzamide], the inhibition at 1 µM at HDAC1 enzyme was found to be 10%; at HDAC6 enzyme it was 99%.

For the compound `O=C(NC[C@H]1COCCN1C(=O)N1CC2CCC(C1)O2)c1ccc(-c2noc(C(F)(F)F)n2)cc1` [Example 110, N-(((3S)-4-(8-oxa-3-azabicyclo[3.2.1]oct-3-ylcarbonyl)morpholin-3-yl)methyl)-4-(5-(trifluoromethyl)-1,2,4-oxadiazol-3-yl)benzamide], the inhibition at 1 µM at HDAC1 enzyme turned out to be 10%; at HDAC6 enzyme, 96%.

Turning to `O=C(NC[C@@H]1COCCN1C(=O)c1cc2ccccc2o1)c1ccc(-c2noc(C(F)(F)F)n2)cc1` [Example 125, N-(((3R)-4-(1-benzofuran-2-ylcarbonyl)morpholin-3-yl)methyl)-4-(5-(trifluoromethyl)-1,2,4-oxadiazol-3-yl)benzamide], the inhibition at 1 µM worked out at 19% on HDAC1 enzyme and 100% at HDAC6 enzyme.

Regarding `O=C(NC[C@@H]1COCCN1C(=O)C1(c2ccccc2)CC1)c1ccc(-c2noc(C(F)(F)F)n2)cc1` [Example 128, N-(((3R)-4-((1-phenylcyclopropyl)carbonyl)morpholin-3-yl)methyl)-4-(5-(trifluoromethyl)-1,2,4-oxadiazol-3-yl)benzamide], the inhibition at 1 µM at HDAC1 enzyme was 6%; on HDAC6 enzyme, 92%.

As to `Cc1nonc1C(=O)N1CCOC[C@H]1CNC(=O)c1ccc(-c2noc(C(F)(F)F)n2)cc1` [Example 132, N-(((3R)-4-((4-methyl-1,2,5-oxadiazol-3-yl)carbonyl)morpholin-3-yl)methyl)-4-(5-(trifluoromethyl)-1,2,4-oxadiazol-3-yl)benzamide], the inhibition at 1 µM at HDAC1 enzyme came to 16%; at HDAC6 enzyme it was 98%.

For the compound `O=C(NC[C@@H]1COCCN1C(=O)c1ccno1)c1ccc(-c2noc(C(F)(F)F)n2)cc1` [Example 133, N-(((3R)-4-(1,2-oxazol-5-ylcarbonyl)morpholin-3-yl)methyl)-4-(5-(trifluoromethyl)-1,2,4-oxadiazol-3-yl)benzamide], the inhibition at 1 µM on HDAC1 enzyme came to 6%; on HDAC6 enzyme, 96%.

`Cc1cc(C(=O)N2CCOC[C@H]2CNC(=O)c2ccc(-c3noc(C(F)(F)F)n3)cc2)on1` [Example 134, N-(((3R)-4-((3-methyl-1,2-oxazol-5-yl)carbonyl)morpholin-3-yl)methyl)-4-(5-(trifluoromethyl)-1,2,4-oxadiazol-3-yl)benzamide]: the inhibition at 1 µM came to 11% on HDAC1 enzyme and 97% on HDAC6 enzyme.

With `O=C(NC[C@@H]1COCCN1C(=O)c1csnn1)c1ccc(-c2noc(C(F)(F)F)n2)cc1` [Example 142, N-(((3R)-4-(1,2,3-thiadiazol-4-ylcarbonyl)morpholin-3-yl)methyl)-4-(5-(trifluoromethyl)-1,2,4-oxadiazol-3-yl)benzamide], the results for the inhibition at 1 µM at HDAC1 enzyme and at HDAC6 enzyme were 12% and 96%, respectively.

`Cc1ccc(C(=O)N2CCOC[C@H]2CNC(=O)c2ccc(-c3noc(C(F)(F)F)n3)cc2)s1` [Example 144, N-(((3R)-4-((5-methyl-2-thienyl)carbonyl)morpholin-3-yl)methyl)-4-(5-(trifluoromethyl)-1,2,4-oxadiazol-3-yl)benzamide]: the inhibition at 1 µM at HDAC1 enzyme stood at 14%; on HDAC6 enzyme it was 96%.

Regarding `Cc1csc(C(=O)N2CCOC[C@H]2CNC(=O)c2ccc(-c3noc(C(F)(F)F)n3)cc2)c1` [Example 145, N-(((3R)-4-((4-methyl-2-thienyl)carbonyl)morpholin-3-yl)methyl)-4-(5-(trifluoromethyl)-1,2,4-oxadiazol-3-yl)benzamide], the inhibition at 1 µM at HDAC1 enzyme worked out at 15%; on HDAC6 enzyme, 97%.

For `O=C(NC[C@@H]1COCCN1C(=O)C1CC1)c1ccc(-c2noc(C(F)(F)F)n2)cc1` [Example 147, N-(((3R)-4-(cyclopropylcarbonyl)morpholin-3-yl)methyl)-4-(5-(trifluoromethyl)-1,2,4-oxadiazol-3-yl)benzamide], the inhibition at 1 µM on HDAC1 enzyme turned out to be 7%; on HDAC6 enzyme it was 94%.

As for `O=C(NC[C@@H]1COCCN1C(=O)CC1CC1)c1ccc(-c2noc(C(F)(F)F)n2)cc1` [Example 148, N-(((3R)-4-(cyclopropylacetyl)morpholin-3-yl)methyl)-4-(5-(trifluoromethyl)-1,2,4-oxadiazol-3-yl)benzamide], the inhibition at 1 µM on HDAC1 enzyme came to 10%; on HDAC6 enzyme, 95%.
